Laboratory results from patent publication US10836792B2, “Retro-inverso peptide inhibitors of cell migration, extracellular matrix and endothelial invasion by tumor cells” (ISTITUTO NAZIONALE TUMORI IRCCS “FONDAZIONE G. PASCALE”, priority 2016, dated 2020).
Non-standard residues stand in square brackets, D forms with d. Residues, ends and D or L forms follow the SMILES beside them. Aib = CC(C)(N)C(=O)O

Columns and labels:
melanoma A375 = test: Matrigel invasion (xCELLigence RTCA), A375; format: cell-based, human; conditions: 10 nM, 20 hrs
Method: (§1) FIG. 8 At the concentration of 10 nM the retro-inverso peptide RI-3 prevents matrigel invasion of tumor cells from human osteosarcoma Saos-2 (A), chondrosarcoma Sarc (B), melanoma A375 (C), metastatic melanoma A375M6 (D), ovarian carcinoma SKOV-3 cells (E), or primary ovarian cancer cells derived from a tumor excision (OV-53) (F), as monitored in real-time for 20 hr as changes in cell index by the xCELLigence RTCA system (Example 8).
(§2) To investigate the ability of RI-3 to prevents matrigel invasion of tumor cells form different tissue origins, human osteosarcoma Saos-2 (A), chondrosarcoma Sarc (B) melanoma A375 (C), metastatic melanoma A375M6 (D), ovarian carcinoma SKOV-3 cells (E) or primary ovarian cancer cells derived from a tumor excision (OV-53) (F) were seeded on polymerized matrigel and allowed to invade matrigel in the absence (None) or in the presence of 10 nM RI-3. Cell invasion was monitored in real-time for 20 hrs as changes in cell index by the xCELLigence RTCA system. Data represent mean±SD from quadruplicate experiments. All cell lines were able to cross matrigel, although to a different extent. In all case RI-3 reduced matrigel invasion by about 30%, 31%, 64%, 57%, 53% and 68%, of Saos-2, Sarc, A375, A375M6, SKOV-3 and OV-53 cells, respectively.

[1] = tested on: human osteosarcoma Saos-2; test: Matrigel invasion (xCELLigence RTCA), Saos-2; format: cell-based; conditions: 10 nM, 20 hrs
Method: as §1, §2

ovarian carcinoma SKOV-3 = test: Trans-endothelial migration through HUVEC monolayer (xCELLigence RTCA), SKOV-3; format: cell-based, human; conditions: 10 nM, 5 hrs
Method: FIG. 9 At the concentration of 10 nM the retro-inverso peptide RI-3 affects trans-endothelial migration of human chondrosarcoma Sarc (A), melanoma A375 (B), ovarian carcinoma SKOV-3 (C) cells, or THP1 monocytes (D), as monitored by the xCELLigence RTCA system (Example 9).
The entry of tumor cells into bloodstream is one of the earliest events of the metastatic process. The ability of RI-3 to affect trans-endothelial migration of human chondrosarcoma Sarc (A) melanoma A375 (B), ovarian carcinoma SKOV-3 (C) cells, or THP1 monocytes (D) was monitored by the xCELLigence RTCA system. Human Umbilical Vein Endothelial Cells (HUVEC) (1×10^4 cells/well) suspended in growth medium, were allowed to grow for 20-25 hrs until they form a confluent monolayer, prior to seeding Sarc, A375, SKOV-3, or THP-1 cells (1×10^4 cells/well) in growth medium in the absence (None) or in the presence of 10 nM RI-3. The experiments were performed twice in quadruplicate. When cells cross the endothelial monolayer, there is a drop in electrical resistance which is monitored in real-time for 5 hrs as the cell index changes due to the rupture of endothelial monolayer. All cell lines were able to reduce endothelial monolayer integrity. The addition of 10 nM RI-3 inhibited the capability of Sarc, A375, SKOV-3, and THP-1 cells to disrupt endothelial monolayers by 17%, 22%, 58%, and 36% respectively.

HUVECs = test: Endothelial tube formation on matrigel; format: cell-based, human; conditions: 10 nM
Method: FIG. 10 At the concentration of 10 nM the retro-inverso peptide RI-3 inhibits both FBS (61%) and VEGF-triggered (75%) endothelial tube formation. (A) representative pictures taken with an inverted microscope at 100× magnifications. (B) quantitative analysis (Example 10).
Endothelial cells undergo morphological differentiation into an extensive network of capillary-like structures consisting of highly organized three-dimensional cords when seeded on matrigel in the presence of a pro-angiogenic stimuli. HUVECs were suspended in medium (CTRL) or medium with 10% FBS or 40 ng/ml VEGF165, without (None) or with 10 nM RI-3 and seeded on matrigel-coated plates for 6 hrs at 37° C., 5% CO2. Representative pictures were taken with an inverted microscope at 100× magnifications. Scale bar: 10 μm (A). Quantitative analysis of tube formation was calculated as a percentage of tubes formed by cord-like structures counted in the absence of any angiogenic stimulus and considered as 100% (CTRL). Data represent means±SD of two independent experiments performed in duplicate. Statistical significance was calculated against none with *p<0.05, **p<0.001 (B). Both FBS and VEGF promoted endothelial tube formation, reaching 352% and 620%, respectively, above basal. The retro-inverso peptide RI-3 reduced FBS- and VEGF-dependent tube formation by 61% and 75%, respectively.

[2] = Stability in bovine serum, read out by HT1080 migration (xCELLigence); format: in vitro ADME; conditions: 10^−3 mol/L in serum 18 hrs at 37° C., then tested at 10 nM
Method: FIG. 7 The retro-inverso peptide RI-3 is stable when pre-incubated in bovine (A) or human serum (B) as assessed in real time using the xCELLigence technology (A) or in Boyden chambers (B) (Example 7).
The stability of the retro-inverso peptide RI-3 in bovine and human serum was investigated through incubation of the peptide at a 10^−3 mol/L in serum for 18 hrs at 37° C. HT1080 cells were allowed to migrate toward DMEM (CTRL), 10% FBS (None), 10% FBS plus 10 nM RI-3 or 10% FBS with 10 nM RI-3 pre-incubated with bovine serum and the impedance values were automatically monitored in real time by the xCELLigence system for 18 hrs and expressed as cell index. Data represent the means from a quadruplicate experiment representative of 2 replicates. […] The stability of RI-3 in human serum was further investigated in cell invasion experiments performed in Boyden chambers. HT1080 cells were allowed to invade matrigel for 6 hrs, toward DMEM (CTRL), 10% FBS (None), 10% FBS plus 10 nM RI-3 or 10% FBS with 10 nM RI-3 pre-incubated with human serum. For quantitative analysis of cell invasion, the basal value assessed in the absence of FBS (CTRL) was taken as 100% and all values were reported relative to that. Data are the means±SD from a triplicate experiment. *Statistical significance was calculated against None with p<0.005. […]

[3] = tested on: metastatic melanoma A375M6; test: Matrigel invasion (xCELLigence RTCA), A375M6; format: cell-based, human; conditions: 10 nM, 20 hrs
Method: as §1, §2

CC(=O)N[C@H](Cc1ccc(O)cc1)C(=O)N[C@H](CCCNC(=N)N)C(=O)NC(C)(C)C(=O)N[C@H](CCCNC(=N)N)C(N)=O [RI-3, Ac-(D)-Tyr-(D)-Arg-Aib-(D)-Arg-NH2] (Ac-[dY][dR][Aib][dR]-NH2)
reduction of matrigel invasion (melanoma A375): ~64%
reduction of matrigel invasion [1]: about 30%
inhibition of the capability to disrupt endothelial monolayers (ovarian carcinoma SKOV-3): 58%
reduction of VEGF-dependent tube formation (HUVECs; 40 ng/ml VEGF165, 6 hrs): 75%
reduction of FBS-dependent tube formation (HUVECs; 10% FBS, 6 hrs): 61%
stability after pre-incubation in bovine serum [2]: stable to enzymatic digestion
reduction of matrigel invasion [3]: ~57%
